In article PMC9321231:
Where two headings read alike, the source gives them in different places.

Key:
[1] = system: urinary bladder carcinoma (UMUC-3) cells; experiment: Antiproliferative assay (MTT or SRB), UMUC-3; type: cell-based, human; settings: for IC50: UMUC-3, read-out: IC50 ± SD, antiproliferative activity; for Calculated Selectivity Index SI: IC50 Balb/3T3 / IC50 UMUC-3
Experimental: (§1) Cell preparation, an in vitro antiproliferative assay, and MTT and SRB cytotoxic tests were performed according to the literature.

[2] = molecular target: T1, human neutrophil elastase (HNE) (Homo sapiens, UniProt P08246); experiment: Kinetic analysis of the inhibition of human neutrophil elastase (Lineweaver-Burk, Dixon, secondary plots); type: biochemical; settings: for Inhibition Type: Lineweaver-Burk and Dixon analysis; for Kis (enzyme-substrate-inhibitor dissociation constant): secondary plot of intercept versus inhibitor concentration; for Ki: secondary plot of slope versus inhibitor concentration, read-out: Ki (enzyme-inhibitor dissociation constant)
T1 sequence (P08246 30-267): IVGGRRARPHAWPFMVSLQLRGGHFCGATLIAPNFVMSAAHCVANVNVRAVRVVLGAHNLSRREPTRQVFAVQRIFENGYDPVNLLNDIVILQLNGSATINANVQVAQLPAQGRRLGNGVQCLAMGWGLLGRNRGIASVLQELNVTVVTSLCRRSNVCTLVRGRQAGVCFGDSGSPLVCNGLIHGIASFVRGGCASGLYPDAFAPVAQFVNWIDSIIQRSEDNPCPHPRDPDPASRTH
Experimental: Next, kinetic analysis of the mechanism of inhibition of human neutrophil elastase by thiazoles 3a–3j was determined using double-reciprocal plots of Lineweaver-Burk plots and Dixon analysis.
The first model is one in which the inhibitor binds better to the free enzyme (competitive mechanism), while the second model is one in which the inhibitor binds better to the enzyme-substrate complex (non-competitive mechanism). Next the secondary plots of slope versus concentration of test compounds were plotted to determine the enzyme-inhibitor dissociation constants Ki, and similarly as was used to determine enzyme-substrate-inhibitor dissociation constants Kis, the secondary plots of intercept versus concentration of tested compounds were plotted.
Kinetic studies were conducted in the presence of different concentrations of substrate (5, 25, 50 and 100 µM) and test compounds (in the range of 0–500 nM). The reaction conditions were the same as in the HNE inhibition assay and the reaction was monitored for 10 min at 25 °C with the same Ex an Em wavelengths. By Lineweaver–Burk plots, kinetic values such as the Michaelis–Menten constants and maximum velocity were determined. Next, two inhibition constants for inhibitor binding with free enzyme or enzyme–substrate complex (Ki and Kis) were obtained by plotting the secondary plot of the slopes of the determined straight lines or vertical intercept (1/Vmax) versus inhibitor concentration.

[3] = system: human biphenotypic B myelomonocytic leukemia (MV4-11) cells; experiment: Antiproliferative assay (MTT or SRB), MV4-11; type: cell-based; settings: for IC50: MV-4-11, read-out: IC50 ± SD, antiproliferative activity; for Calculated Selectivity Index SI: IC50 Balb/3T3 / IC50 MV-4-11
Experimental: as §1

[4] = system: normal mouse fibroblast (BALB/3T3) cells; experiment: Antiproliferative assay (MTT or SRB), normal fibroblasts BALB/3T3; type: cell-based; settings: Balb/3T3 normal mouse fibroblasts; read-out: IC50 ± SD, antiproliferative activity
Experimental: Anticancer drugs are toxic to cancer cells, but also show some toxicity to healthy cells. […] The selectivity indexes for thiazoles 3a–3j against MV4-11 and A-549 cells were in general much higher than for MDA-MB-231 and UMUC-3 cells.
as §1

[5] = system: lung carcinoma (A549) cells; experiment: Antiproliferative assay (MTT or SRB), A549; type: cell-based, human; settings: for IC50: A-549, read-out: IC50 ± SD, antiproliferative activity; for Calculated Selectivity Index SI: IC50 Balb/3T3 / IC50 A-549
Experimental: as §1

[6] = system: human breast adenocarcinoma (MDA-MB-231) cells; experiment: Antiproliferative assay (MTT or SRB), MDA-MB-231; type: cell-based; settings: for IC50: MDA-MB-231, read-out: IC50 ± SD, antiproliferative activity; for Calculated Selectivity Index SI: IC50 Balb/3T3 / IC50 MDA-MB-231
Experimental: as §1

[7] = molecular target: T1, human neutrophil elastase (HNE); experiment: Human neutrophil elastase inhibition assay (spectrofluorimetric, MeOSuc-AAPV-AMC substrate)
Experimental: The inhibition of human neutrophil elastase was carried out by the spectrofluorimetric method using N-methoxysuccinyl-Ala-Ala-Pro-Val-7-amido-4-methylcoumarin (MeOSuc-AAPV-AMC) as substrate.

| Structure (SMILES) | IC50 ([1]; Homo sapiens, UMUC3) | Inhibition Type [2] | Kis (enzyme-substrate-inhibitor dissociation constant) [2] | Ki [2] | IC50 ([3]; Homo sapiens, MV4-11) | melting point | IC50 ([5]; Homo sapiens, A549) | IC50 ([6]; Homo sapiens) | IC50 [7] | Calculated Selectivity Index SI [1] | Calculated Selectivity Index SI [3] | IC50 [4] | Calculated Selectivity Index SI [5] | Calculated Selectivity Index SI [6] | IC50 [1] | IC50 [3] | IC50 [5] | IC50 [6] |
| --- | --- | --- | --- | --- | --- | --- | --- | --- | --- | --- | --- | --- | --- | --- | --- | --- | --- | --- |
| CCC1(CC)C(=O)N(c2ccc(-c3csc(Nc4ccc(Cl)cc4)n3)cc2)C1=O [3a, 1-(4-(2-(4-Chlorophenylamino)thiazol-4-yl)phenyl)-3,3-diethylazetidine-2,4-dione] | 10.7 ± 1.41 µM | mixed | 426.00 nM | 0.59 µM | 7.15 ± 0.94 µM | 164 to 166 °C | 7.01 ± 0.47 µM | 9.86 ± 0.94 µM | 0.227 ± 0.0351 µM | 1.02 | 1.52 | 10.9 ± 1.18 µM | 1.55 | 1.10 | – | – | – | – |
| CCC1(CC)C(=O)N(c2ccc(-c3csc(Nc4cccc5ccccc45)n3)cc2)C1=O [3h, 3,3-Diethyl-1-(4-(2-(naphthalen-1-ylamino)thiazol-4-yl)phenyl)azetidine-2,4-dione] | 13.3 ± 1.81 µM | mixed type I inhibition | 46.50 nM | 0.0339 µM | 6.64 ± 1.59 µM | 69 to 71 °C | 9.2 ± 1.36 µM | 14.6 ± 3.17 µM | 0.0446 ± 0.00604 µM | 1.69 | 3.38 | 22.4 ± 8.62 µM | 2.44 | 1.53 | – | – | – | – |
| CCC1(CC)C(=O)N(c2ccc(-c3csc(Nc4c(Cl)cc(Cl)cc4Cl)n3)cc2)C1=O [3j, 3,3-Diethyl-1-(4-(2-(2,4,6-trichlorophenylamino)thiazol-4-yl)phenyl)azetidine-2,4-dione] | 25.3 ± 9.94 µM | mixed | 38.00 nM | 0.209 µM | 5.11 ± 1.42 µM | 78 to 80 °C | 6.21 ± 0.73 µM | 14.3 ± 3.45 µM | 0.249 ± 0.0328 µM | 1.36 | 6.75 | 34.5 ± 22.7 µM | 5.55 | 2.41 | – | – | – | – |
| CCC1(CC)C(=O)N(c2ccc(-c3csc(Nc4c(F)c(F)c(F)c(F)c4F)n3)cc2)C1=O [3d, 3,3-Diethyl-1-(4-(2-(perfluorophenylamino)thiazol-4-yl)phenyl)azetidine-2,4-dione] | 62.7 ± 9.98 µM | mixed | 49.33 nM | 0.138 µM | 5.4 ± 2.06 µM | 162 to 164 °C | 15.3 ± 4.98 µM | 72.1 ± 26 µM | 0.11 ± 0.00441 µM | 0.74 | 8.61 | 46.5 ± 4.99 µM | 3.04 | 0.64 | – | – | – | – |
| N.N.[Cl][Pt][Cl] [cisplatin, reference compound] | – | – | – | – | – | – | – | – | – | – | – | 8.04 ± 3.16 µM | – | – | 1.73 ± 0.17 µM | 1.33 ± 0.17 µM | 4.09 ± 1 µM | 19.4 ± 6.8 µM |
| CCC1(CC)C(=O)N(c2ccc(-c3csc(Nc4cc(C)cc(C)c4)n3)cc2)C1=O [3f, 1-(4-(2-(3,5-Dimethylphenylamino)thiazol-4-yl)phenyl)-3,3-diethylazetidine-2,4-dione] | 19.7 ± 5.49 µM | mixed type I inhibition | 426.00 nM | 0.144 µM | 5.89 ± 1.67 µM | 140 to 143 °C | 7.28 ± 1.07 µM | 12.5 ± 1.79 µM | 0.244 ± 0.0194 µM | 1.21 | 4.04 | 23.8 ± 4.53 µM | 3.27 | 1.90 | – | – | – | – |

More lines, main results first:

| IC50 ([1]; Homo sapiens, UMUC3) | Inhibition Type [2] | Kis (enzyme-substrate-inhibitor dissociation constant) [2] | Ki [2] | IC50 ([3]; Homo sapiens, MV4-11) | melting point | IC50 ([5]; Homo sapiens, A549) | IC50 ([6]; Homo sapiens) | IC50 [7] | Structure (SMILES) | Calculated Selectivity Index SI [1] | Calculated Selectivity Index SI [3] | IC50 [4] | Calculated Selectivity Index SI [5] | Calculated Selectivity Index SI [6] | IC50 [1] | IC50 [3] | IC50 [5] | IC50 [6] |
| --- | --- | --- | --- | --- | --- | --- | --- | --- | --- | --- | --- | --- | --- | --- | --- | --- | --- | --- |
| 10.7 ± 3.05 µM | mixed | 425.00 nM | 0.597 µM | 5.47 ± 1.52 µM | 170 to 172 °C | 6.42 ± 0.72 µM | 11.7 ± 3.7 µM | 0.168 ± 0.0181 µM | CCC1(CC)C(=O)N(c2ccc(-c3csc(Nc4ccc(C(F)(F)F)cc4)n3)cc2)C1=O [3i, 3,3-Diethyl-1-(4-(2-(4-(trifluoromethyl)phenylamino)thiazol-4-yl)phenyl)-azetidine-2,4-dione] | 0.95 | 1.85 | 10.1 ± 0.87 µM | 1.58 | 0.87 | – | – | – | – |
| 9.07 ± 0.49 µM | mixed | 65.50 nM | 0.0722 µM | 5.92 ± 1.71 µM | 155 to 157 °C | 7.31 ± 0.46 µM | 9.34 ± 1.12 µM | 0.176 ± 0.0135 µM | CCC1(CC)C(=O)N(c2ccc(-c3csc(Nc4ccc(F)cc4)n3)cc2)C1=O [3b, 3,3-Diethyl-1-(4-(2-(4-fluorophenylamino)thiazol-4-yl)phenyl)azetidine-2,4-dione] | 1.27 | 1.94 | 11.5 ± 1.47 µM | 1.57 | 1.23 | – | – | – | – |
| 7.89 ± 0.23 µM | mixed type I inhibition | 171.25 nM | 0.137 µM | 5.38 ± 0.46 µM | 186 to 188 °C | 5.59 ± 0.16 µM | 6.19 ± 0.42 µM | 0.312 ± 0.00576 µM | CCC1(CC)C(=O)N(c2ccc(-c3csc(Nc4ccc5[nH]ncc5c4)n3)cc2)C1=O [3g, 1-(4-(2-(1H-Indazol-5-ylamino)thiazol-4-yl)phenyl)-3,3-diethylazetidine-2,4-dione] | 0.76 | 1.12 | 6.03 ± 0.46 µM | 1.08 | 0.97 | – | – | – | – |
